Measured values from paper PMC3902031 (Bioorganic & medicinal chemistry, 2013).
“And” between values parts separate entries of the source, which are not always exact repeats. Identical values can stand only once. Like-named read-outs stand apart in the source and are kept apart here.

Tests used:
[1] = test system: T. cruzi amastigotes; assay: T. cruzi amastigote assays; assay type: cell-based, Trypanosoma cruzi
[2] = test system: T. cruzi amastigotes; conditions: cited from earlier work
[3] = test system: T. gondii tachyzoites; assay: T. gondii tachyzoites assays; assay type: cell-based, Toxoplasma gondii
[4] = target: T1, TcFPPS (T. cruzi farnesyl pyrophosphate synthase) (Trypanosoma cruzi, UniProt Q8WS26); assay: TcFPPS enzymatic activity inhibition; assay type: biochemical
T1 sequence (Q8WS26 1-425): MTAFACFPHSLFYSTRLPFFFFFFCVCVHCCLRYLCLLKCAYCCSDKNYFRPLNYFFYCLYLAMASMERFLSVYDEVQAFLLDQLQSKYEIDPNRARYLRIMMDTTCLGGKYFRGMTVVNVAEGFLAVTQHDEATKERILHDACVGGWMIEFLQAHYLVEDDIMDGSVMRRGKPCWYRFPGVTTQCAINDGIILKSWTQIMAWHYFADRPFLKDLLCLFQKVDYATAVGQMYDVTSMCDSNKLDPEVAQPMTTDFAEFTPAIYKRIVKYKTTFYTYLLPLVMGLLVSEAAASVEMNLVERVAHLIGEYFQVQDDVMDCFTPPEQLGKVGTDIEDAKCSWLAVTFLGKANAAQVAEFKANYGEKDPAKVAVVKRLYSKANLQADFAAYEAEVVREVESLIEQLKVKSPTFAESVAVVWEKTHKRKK

[5] = test system: T. gondii tachyzoites; conditions: positive control; cited from earlier work
[6] = target: T1, TcFPPS (T. cruzi farnesyl pyrophosphate synthase); conditions: cited from earlier work

## O=C(Cn1ccnc1[N+](=O)[O-])NCc1ccccc1 [Benznidazole, reference compound]
[1]
  ED50 T. cruzi amastigotes: 1.44 ± 0.97 µM
[2]
  ED50 intracellular T. cruzi proliferation: 2.77 µM

## CCCCCCCCNCC(O)(P(=O)(O)O)P(=O)(O)O [Compound 30, 1-[(n-Octylamino)ethyl]-1-hydroxy-1,1-bisphosphonic Acid]
[3]
  ED50 T. gondii tachyzoites: 2.0 µM and 2.00 ± 0.95 µM

## CCCCCCCCCCNCC(O)(P(=O)(O)O)P(=O)(O)O [Compound 31, 1-[(n-Decylamino)ethyl]-1-hydroxy-1,1-bisphosphonic Acid]
[3]
  T. gondii tachyzoites, % at 10 μM (printed in the ED50 column): 14.9% at 10 μM
[4]
  IC50: > 10 µM

## O=P(O)(O)C(O)(Cc1cccnc1)P(=O)(O)O [Risedronate, risedronate]
[2]
  ED50 T. cruzi amastigotes: 55.0 ± 5.0[53] μM
[5]
  ED50 T. gondii tachyzoites: 2.4 μM and 2.4 ± 0.7[24] μM

## CCCCCCCCC(F)(P(=O)(O)O)P(=O)(O)O [Compound 10]
[2]
  cellular activity against T. cruzi: devoid of cellular activity
[6]
  activity against TcFPPS: devoid

## CCCCCCCNCC(O)(P(=O)(O)O)P(=O)(O)O [Compound 29, 1-[(n-Heptylamino)ethyl]-1-hydroxy-1,1-bisphosphonic Acid]
[1]
  ED50 T. cruzi amastigotes: > 20 µM
[3]
  T. gondii tachyzoites, % at 10 μM (printed in the ED50 column): 0.00% at 10 μM

## CCCCCCNCC(P(=O)(O)O)P(=O)(O)O [Compound 12]
[2]
  ED50 against T. cruzi (amastigotes): 0.84 µM

## CCCCCCCCCCCCNCC(P(=O)(O)O)P(=O)(O)O [Compound 14]
[2]
  ED50 intracellular T. cruzi proliferation: 0.67 µM

## CCCCCNCC(O)(P(=O)(O)O)P(=O)(O)O [Compound 27, 1-[(n-Pentylamino)ethyl]-1-hydroxy-1,1-bisphosphonic Acid]
[1]
  ED50 T. cruzi amastigotes: > 20 µM
[3]
  ED50 T. gondii tachyzoites: > 10 µM
[4]
  IC50: > 10 µM

## CCCCCCNCC(O)(P(=O)(O)O)P(=O)(O)O [Compound 28, 1-[(n-Hexylamino)ethyl]-1-hydroxy-1,1-bisphosphonic Acid]
[1]
  ED50 T. cruzi amastigotes: > 20 µM
[3]
  ED50 T. gondii tachyzoites: 4.7 µM and 4.68 ± 1.19 µM
[4]
  IC50: > 10 µM

## CCCCCCCCCC(F)(P(=O)(O)O)P(=O)(O)O [Compound 11]
[2]
  cellular activity against T. cruzi: devoid of cellular activity
[6]
  activity against TcFPPS: devoid
